Test system: 292921-168-R-J2-PDC complex spheroid growth
Assay: Anticancer human tumor 292921-168-R-J2-PDC patient-derived pancreatic carcinoma cell line growth inhibition [AhR]
Conditions: for IC50: curve of first compound; for viability, T/C: stronger effect = lower value
Procedure, shortened: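 Complex tumor spheroids co-cultured with HUVEC and human MSC stroma; AhR antagonists tested in combination with standard-of-care and investigational agents. Top concentration at or near clinical Cmax (else 10 microM), half-log dilutions; growth expressed as percent test/control.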

[1] = second compound 0.1 µM, first compound 0.0316 µM
[2] = second compound 0.1 µM, first compound 0.1 µM
[3] = second compound 0.316 µM, first compound 0.0316 µM
[4] = second compound 0.316 µM, first compound 0.1 µM
[5] = second compound 1 µM, first compound 0.0316 µM
[6] = second compound 1 µM, first compound 0.1 µM
[7] = second compound 3.16 µM, first compound 0.0316 µM
[8] = second compound 3.16 µM, first compound 0.1 µM
[9] = second compound 10 µM, first compound 0.0316 µM
[10] = second compound 10 µM, first compound 0.1 µM
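Also: spheroids exposed to compounds for seven days after three days of growth.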

SMILES: CC1(C)CCC(CN2CCN(c3ccc(C(=O)NS(=O)(=O)c4ccc(NCC5CCOCC5)c([N+](=O)[O-])c4)c(Oc4cnc5[nH]ccc5c4)c3)CC2)=C(c2ccc(Cl)cc2)C1 + CC(CO)NC(=O)c1cc(-c2ccc(Cl)cc2)nn(-c2cnn(C)c2)c1=O
- IC50 (second compound 0.1 µM): 6.19 µM
- IC50 (second compound 0.316 µM): 6.33 µM
- IC50 (second compound 1 µM): 6.81 µM
- IC50 (second compound 3.16 µM): 5.75 µM
- IC50 (second compound 10 µM): 4.31 µM
- viability, T/C [1]: 103%
- viability, T/C [2]: 101%
- viability, T/C (second compound 0.1 µM, first compound 0.316 µM): 108%
- viability, T/C (second compound 0.1 µM, first compound 1 µM): 103%
- viability, T/C (second compound 0.1 µM, first compound 3.16 µM): 91.1%
- viability, T/C (second compound 0.1 µM, first compound 10 µM): 20.7%
- viability, T/C [3]: 105%
- viability, T/C [4]: 98.7%
- viability, T/C (second compound 0.316 µM, first compound 0.316 µM): 106%
- viability, T/C (second compound 0.316 µM, first compound 1 µM): 95.6%
- viability, T/C (second compound 0.316 µM, first compound 3.16 µM): 97.5%
- viability, T/C (second compound 0.316 µM, first compound 10 µM): 18.8%
- viability, T/C [5]: 96.7%
- viability, T/C [6]: 94.9%
- viability, T/C (second compound 1 µM, first compound 0.316 µM): 102%
- viability, T/C (second compound 1 µM, first compound 1 µM): 98.2%
- viability, T/C (second compound 1 µM, first compound 3.16 µM): 101%
- viability, T/C (second compound 1 µM, first compound 10 µM): 25.6%
- viability, T/C [7]: 92.9%
- viability, T/C [8]: 87.4%
- viability, T/C (second compound 3.16 µM, first compound 0.316 µM): 93.3%
- viability, T/C (second compound 3.16 µM, first compound 1 µM): 96.7%
- viability, T/C (second compound 3.16 µM, first compound 3.16 µM): 83.8%
- viability, T/C (second compound 3.16 µM, first compound 10 µM): 18.5%
- viability, T/C [9]: 67.8%
- viability, T/C [10]: 70.7%
- viability, T/C (second compound 10 µM, first compound 0.316 µM): 71.6%
- viability, T/C (second compound 10 µM, first compound 1 µM): 72.5%
- viability, T/C (second compound 10 µM, first compound 3.16 µM): 62.2%
- viability, T/C (second compound 10 µM, first compound 10 µM): 16%

SMILES: CCN(c1cc(-c2ccc(CN3CCOCC3)cc2)cc(C(=O)NCc2c(C)cc(C)[nH]c2=O)c1C)C1CCOCC1 + CC(CO)NC(=O)c1cc(-c2ccc(Cl)cc2)nn(-c2cnn(C)c2)c1=O
- IC50 (second compound 0.1 µM): > 3 µM
- IC50 (second compound 0.316 µM): > 3 µM
- IC50 (second compound 1 µM): > 3 µM
- IC50 (second compound 3.16 µM): > 3 µM
- IC50 (second compound 10 µM): > 3 µM
- viability, T/C (second compound 0.1 µM, first compound 0.00949 µM): 103%
- viability, T/C (second compound 0.1 µM, first compound 0.03 µM): 100%
- viability, T/C (second compound 0.1 µM, first compound 0.0949 µM): 102%
- viability, T/C (second compound 0.1 µM, first compound 0.3 µM): 93.1%
- viability, T/C (second compound 0.1 µM, first compound 0.949 µM): 96.9%
- viability, T/C (second compound 0.1 µM, first compound 3 µM): 93.9%
- viability, T/C (second compound 0.316 µM, first compound 0.00949 µM): 107%
- viability, T/C (second compound 0.316 µM, first compound 0.03 µM): 102%
- viability, T/C (second compound 0.316 µM, first compound 0.0949 µM): 100%
- viability, T/C (second compound 0.316 µM, first compound 0.3 µM): 103%
- viability, T/C (second compound 0.316 µM, first compound 0.949 µM): 94.8%
- viability, T/C (second compound 0.316 µM, first compound 3 µM): 87%
- viability, T/C (second compound 1 µM, first compound 0.00949 µM): 102%
- viability, T/C (second compound 1 µM, first compound 0.03 µM): 99%
- viability, T/C (second compound 1 µM, first compound 0.0949 µM): 110%
- viability, T/C (second compound 1 µM, first compound 0.3 µM): 97%
- viability, T/C (second compound 1 µM, first compound 0.949 µM): 95.5%
- viability, T/C (second compound 1 µM, first compound 3 µM): 86.5%
- viability, T/C (second compound 3.16 µM, first compound 0.00949 µM): 91.9%
- viability, T/C (second compound 3.16 µM, first compound 0.03 µM): 89.4%
- viability, T/C (second compound 3.16 µM, first compound 0.0949 µM): 104%
- viability, T/C (second compound 3.16 µM, first compound 0.3 µM): 85%
- viability, T/C (second compound 3.16 µM, first compound 0.949 µM): 81%
- viability, T/C (second compound 3.16 µM, first compound 3 µM): 83%
- viability, T/C (second compound 10 µM, first compound 0.00949 µM): 69.1%
- viability, T/C (second compound 10 µM, first compound 0.03 µM): 71.1%
- viability, T/C (second compound 10 µM, first compound 0.0949 µM): 76.4%
- viability, T/C (second compound 10 µM, first compound 0.3 µM): 76.2%
- viability, T/C (second compound 10 µM, first compound 0.949 µM): 69.9%
- viability, T/C (second compound 10 µM, first compound 3 µM): 72.9%

SMILES: Cn1ncnc1C1c2n[nH]c(=O)c3cc(F)cc(c23)NC1c1ccc(F)cc1 (stereo not given) + CC(CO)NC(=O)c1cc(-c2ccc(Cl)cc2)nn(-c2cnn(C)c2)c1=O
- IC50 (second compound 0.1 µM): > 0.1 µM
- IC50 (second compound 0.316 µM): > 0.1 µM
- IC50 (second compound 1 µM): > 0.1 µM
- IC50 (second compound 3.16 µM): > 0.1 µM
- IC50 (second compound 10 µM): > 0.1 µM
- viability, T/C (second compound 0.1 µM, first compound 0.000316 µM): 103%
- viability, T/C (second compound 0.1 µM, first compound 0.001 µM): 109%
- viability, T/C (second compound 0.1 µM, first compound 0.00316 µM): 100%
- viability, T/C (second compound 0.1 µM, first compound 0.01 µM): 99.8%
- viability, T/C [1]: 94.3%
- viability, T/C [2]: 87.6%
- viability, T/C (second compound 0.316 µM, first compound 0.000316 µM): 109%
- viability, T/C (second compound 0.316 µM, first compound 0.001 µM): 97.5%
- viability, T/C (second compound 0.316 µM, first compound 0.00316 µM): 104%
- viability, T/C (second compound 0.316 µM, first compound 0.01 µM): 96%
- viability, T/C [3]: 96.5%
- viability, T/C [4]: 79.9%
- viability, T/C (second compound 1 µM, first compound 0.000316 µM): 108%
- viability, T/C (second compound 1 µM, first compound 0.001 µM): 106%
- viability, T/C (second compound 1 µM, first compound 0.00316 µM): 99.6%
- viability, T/C (second compound 1 µM, first compound 0.01 µM): 89.9%
- viability, T/C [5]: 86.3%
- viability, T/C [6]: 94.3%
- viability, T/C (second compound 3.16 µM, first compound 0.000316 µM): 92.2%
- viability, T/C (second compound 3.16 µM, first compound 0.001 µM): 99.2%
- viability, T/C (second compound 3.16 µM, first compound 0.00316 µM): 92.6%
- viability, T/C (second compound 3.16 µM, first compound 0.01 µM): 92.9%
- viability, T/C [7]: 77.1%
- viability, T/C [8]: 77.4%
- viability, T/C (second compound 10 µM, first compound 0.000316 µM): 68.5%
- viability, T/C (second compound 10 µM, first compound 0.001 µM): 73.3%
- viability, T/C (second compound 10 µM, first compound 0.00316 µM): 75.8%
- viability, T/C (second compound 10 µM, first compound 0.01 µM): 73%
- viability, T/C [9]: 67%
- viability, T/C [10]: 64.6%

Source: PubChem BioAssay AID1918994 (Molecular Pharmacology Branch, DTP, NCI, 2023)
